The source of these data is PubChem BioAssay AID434951 (Broad Institute, 2010).

Activity calls are given as the source filed them.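 The calls were made as follows: active = a fitted half-maximal concentration EC50 for the rise in nuclear signal no higher than ten times the top dose tested; inconclusive = flat fit with activity between 30% and 70%, or unusable fit; inactive = EC50 beyond ten times the top dose.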 Bounds are passed on as bounds.

Chain of Hypoxia-inducible factor 1-alpha (Homo sapiens) (Q16665 whole entry, looked up): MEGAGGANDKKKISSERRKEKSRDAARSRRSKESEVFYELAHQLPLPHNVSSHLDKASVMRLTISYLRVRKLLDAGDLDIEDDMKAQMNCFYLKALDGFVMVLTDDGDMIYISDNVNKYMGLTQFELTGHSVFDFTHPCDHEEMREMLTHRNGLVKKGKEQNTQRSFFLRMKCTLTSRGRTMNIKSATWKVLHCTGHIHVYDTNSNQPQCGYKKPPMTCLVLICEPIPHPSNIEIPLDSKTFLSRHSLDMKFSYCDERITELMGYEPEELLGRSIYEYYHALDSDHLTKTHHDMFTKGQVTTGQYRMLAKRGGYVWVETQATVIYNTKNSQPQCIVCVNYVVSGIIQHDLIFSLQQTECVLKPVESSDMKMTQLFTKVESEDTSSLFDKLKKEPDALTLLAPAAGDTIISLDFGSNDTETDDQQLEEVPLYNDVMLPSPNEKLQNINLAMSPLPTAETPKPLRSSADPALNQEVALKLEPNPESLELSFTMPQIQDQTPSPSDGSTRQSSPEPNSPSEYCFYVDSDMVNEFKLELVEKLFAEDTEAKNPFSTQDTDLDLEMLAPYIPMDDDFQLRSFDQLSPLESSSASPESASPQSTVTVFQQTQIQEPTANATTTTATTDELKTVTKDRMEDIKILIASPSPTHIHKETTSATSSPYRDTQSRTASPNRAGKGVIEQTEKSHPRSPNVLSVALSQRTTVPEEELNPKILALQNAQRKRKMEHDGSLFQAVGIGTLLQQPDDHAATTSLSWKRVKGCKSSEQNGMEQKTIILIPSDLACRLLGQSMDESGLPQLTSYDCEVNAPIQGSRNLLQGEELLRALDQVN

This experiment concerns the target Hypoxia-inducible factor 1-alpha (Homo sapiens) (UniProt Q16665). Nature of the experiment: HIF pathway activation, GFP-HIF1alpha translocation – imaging, fluorescence, U2OS GFP-HIF1alpha, confirmation (AID 434951). To be noted: U2OS GFP-HIF1alpha nuclear intensity, high-content imaging.
Take `COc1ccc2cc3cc(C(=O)N4CCN(c5ccccn5)CC4)oc3nc2c1`: the EC50 – broadly, the midpoint of the concentration-response curve – is > 35 µM (inactive).

For `CC(=O)OCCCNc1cc(Sc2ccc(C)cc2)c2nonc2c1[N+](=O)[O-]`, the EC50 was > 35 µM (inactive). In the case of `FC(F)(F)c1ccc(-c2nc(=S)[nH][nH]2)cc1` it was > 35 µM (inactive); in that of `S=C(Nc1ccc(Cl)cc1)Nc1ccc2cn[nH]c2c1`, > 35 µM (inactive). On to `CCN(CC)CCNC1=CC(=O)OC12CCCCC2`, for which the EC50 was > 35 µM (inactive). Next, `COC(=O)c1ccc(C(C(=O)NCc2ccccc2)N(Cc2ccco2)C(=O)c2cnccn2)cc1` (stereo unspecified): > 35 µM (inactive); `COc1cccc(/C=N/NC(=O)c2ccc(-c3ccccc3)cc2)c1O`: 30.5 µM; `CCNC(=O)COc1cccc(C(=O)NCc2ccccc2)c1`: > 35 µM (inactive). Next, `C[C@@H](C(=O)Nc1ccc2c(c1)OCCO2)n1c(=O)[nH]c2ccccc2c1=O`: > 35 µM (inactive); `O=C(NCCCN1CCOCC1)c1cc(-c2ccccc2)on1`: 9.39 µM. In the case of `C/C(=C\C(=O)OCC(=O)NCc1ccccc1)C(=O)OCC(=O)NCc1ccccc1` it was > 35 µM (inactive); in that of `CCOc1cccc(-c2c(C(=O)N/N=C/c3ccc(Br)cc3)nnn2-c2nonc2N)c1`, > 35 µM (inactive); in that of `Fc1ccc(CSc2ccc(-c3ccco3)nn2)cc1`, > 35 µM (inactive). As to `Cc1cc(C)c(NS(=O)(=O)c2ccc3c(c2)NC(=O)CCS3)c(C)c1`, the EC50 was > 35 µM (inactive). Take `COc1ccc2ccccc2c1/C=N/Nc1cccc(C(=O)O)c1`: the EC50 is > 35 µM (inactive). Next, `Cc1nnc(SCc2cccc(Cl)c2)n(N)c1=O`: > 35 µM (inactive). In the case of `COc1ccc(-c2cn3nc(SCC(=O)NCC4CCCO4)ccc3n2)cc1` (stereo unspecified) it was > 35 µM (inactive); in that of `CCOP(=O)(C#CC(C)(C)C)C1(O)CCCCC1` (stereo unspecified), > 35 µM (inactive). Next, `COc1ccc(C(NC(=O)C(C)C)c2ccc3cccnc3c2O)cc1` (stereo unspecified): 2.66 µM; `O=C(NC(c1ccccc1)c1ccccc1)C1CCCO1` (stereo unspecified): > 35 µM (inactive); `COc1ccc2nc(NC(=O)Nc3ccccc3OC)sc2c1`: > 35 µM (inactive). `Cc1oc(-c2ccc(Cl)cc2)nc1CS(=O)CC(=O)NCCN1CCCCCC1` (stereo unspecified): the EC50 was > 35 µM (inactive). Consider `COC(=O)C1=C(C)N(Cc2ccc(OC)cc2)C(=O)C1`, for which the EC50 is > 35 µM (inactive). Next, `COC(=O)CCCC1=CC2=CC(=O)C(C)(OC(=O)c3cccs3)C(=O)C2=CN1Cc1ccc2c(c1)OCO2` (stereo unspecified): > 35 µM (inactive). Next, `COc1cc(C(=O)NCCc2nc3ccccc3n2C)cc(OC)c1OC`: > 35 µM (inactive); `COc1ccc(C/C(C)=N/NS(=O)(=O)c2ccc(Br)cc2)cc1`: > 35 µM (inactive). Next, `CC(NC(=O)C12CC3CC(CC(O)(C3)C1)C2)c1ccc(Cl)cc1Cl` (stereo unspecified): > 35 µM (inactive); `COc1cccc(CN2CCC(N(CCc3ccccc3)Cc3ccccc3)CC2)c1OC`: > 35 µM (inactive); `O=C(CCc1ccccc1)Nc1ccnn1C1CCN(C/C=C/c2ccccc2)CC1`: > 35 µM (inactive).

As to `CC(=O)Cn1c(=O)c2c(nc3n2CCCN3Cc2ccccc2)n(C)c1=O`, the EC50 is > 35 µM (inactive). Next, `CCN(CCCCCN(C)C)Cc1cc2ccccc2o1`: > 35 µM (inactive). In the case of `Cc1ccc(NC(=O)N2CCC(NC(=O)c3cccc(C)c3)CC2)cc1` it was > 35 µM (inactive). Next, `COc1ccc2cc(C(C)C(=O)N3CCC(C(N)=O)CC3)ccc2c1` (stereo unspecified): > 35 µM (inactive).

For `CCOc1cc(N2CCOCC2)c(OCC)cc1NC(C)C(=O)N1CCC(C)CC1` (stereo unspecified), the EC50 is > 35 µM (inactive). Consider `CCOc1ccccc1N1CCN(C(=S)NC(=O)C23CC4CC(CC(C4)C2)C3)CC1`, for which the EC50 is > 35 µM (inactive). Next, `Cc1ccc(C)c(-c2cc(C(=O)Nc3cccc(C(=O)O)c3)c3ccccc3n2)c1`: > 35 µM (inactive); `O=C(NC(=S)Nc1ccccn1)c1cc(-c2ccccc2)nc2ccccc12`: > 35 µM (inactive). Next, `COc1cccc(/C=N/NC(=O)CNC(=O)C(c2ccccc2)c2ccccc2)c1O`: > 35 µM (inactive); `C=CCSc1cc(C)nc2c(-c3ccccc3)cnn12`: > 35 µM (inactive).

Consider `COC(=O)c1ccc(CSc2nc3c(c(=O)n2-c2ccc(F)cc2)SCC3)o1`, for which the EC50 is > 35 µM (inactive). Next, `CCOC(=O)c1cc2c(ccn2C)n1CC(=O)N1CCN(c2ccccc2)CC1`: > 35 µM (inactive); `CC(NC(=O)c1cc2c(s1)CS(=O)(=O)C2)c1ccccc1` (stereo unspecified): > 35 µM (inactive).

On to `COc1ccc(NC(=S)NCc2cccnc2)cc1`, for which the EC50 was > 35 µM (inactive). For the compound `Cc1cc(NC(=O)CSc2nc3c(c(=O)n2-c2ccc(Cl)cc2)SCC3)no1`, the EC50 was > 35 µM (inactive). Next, `Cc1nc2ccccc2c(=O)n1/N=C/c1ccc2ccccc2c1O`: 22.2 µM; `COC(=O)CN1C(=O)[C@H]2[C@@H](c3ccc(C)o3)N3C(=O)CN(CC4CC4)C(=O)[C@@]3(Cc3ccccc3)[C@H]2C1=O`: > 35 µM (inactive). Next, `CC(C)NC(=O)NC(=O)CSc1nnc(-c2ccccc2F)n1N`: > 35 µM (inactive); `CCN(CC)CCC(=O)Nc1cccc2c1C(=O)c1ccccc1C2=O`: > 35 µM (inactive). In the case of `COC(=O)Nc1nnc(Cc2ccc(OC)cc2)s1` it was > 35 µM (inactive).

For `COc1ccc(NC(=O)CCS(=O)(=O)c2ccc3c(c2)CCN3C(C)=O)cc1`, the EC50 is > 35 µM (inactive). Next, `Cc1cc(NC(=O)CCN2C(=O)/C(=C\c3ccccc3)SC2=S)no1`: 34.4 µM. Next, `CC1CN(c2nc3ccccn3c(=O)c2/C=C(\C#N)C(=O)N2CCOCC2)CC(C)O1` (stereo unspecified): > 35 µM (inactive); `Cc1cc(C)cc(NC(=O)c2cccc(NC(=O)c3ccco3)c2)c1`: > 35 µM (inactive). In the case of `O=C(Nc1ccccc1O)c1ccc(NC(=O)C2CC2)cc1` it was 10.8 µM; in that of `O=C1CCCc2ccccc2N1Cc1ccc(F)cc1`, > 35 µM (inactive). As for `COC(=O)Cc1ccc(NC(=S)NC(C)(C)C)cc1`, the EC50 was > 35 µM (inactive). Next, `Cc1c(/C=N/NC(N)=O)c2ccccn2c1C(=O)c1ccncc1`: > 35 µM (inactive); `COc1ccc2nc(-c3cccc(N)c3)[nH]c2c1`: > 35 µM (inactive).

On to `Cc1nc2nc(-c3ccco3)nn2c(C)c1Cl`, for which the EC50 is > 35 µM (inactive).

`COc1ccc(CN2CCNC(=O)C2CC(=O)NC2CCCC2)c(OC)c1` (stereo unspecified): the EC50 was > 35 µM (inactive). In the case of `Cc1cc(C)c2nc(N3CCN(C(=O)c4ccco4)CC3)sc2c1` it was > 35 µM (inactive); in that of `ON=C1c2cc(OCCN3CCCCC3)ccc2-c2ccc(OCCN3CCCCC3)cc21`, 8.97 µM. Next, `O=C(Nc1nc(-c2ccccn2)cs1)c1cc(Cl)ccc1[N+](=O)[O-]`: 9.95 µM; `O=C(CN1CCCc2ccccc21)N/N=C/c1c(O)ccc2ccccc12`: 36.5 µM; `CSc1sc(C(=O)N2CCCCC2)c(-c2cccs2)c1C#N`: > 35 µM (inactive). In the case of `c1ccc(-c2nnc(-c3ccccn3)nc2NC2CCCCC2)cc1` it was 6.78 µM; in that of `CCOC(=O)c1c(-c2ccccc2)oc2ccc(OCC(O)CN(C)C)cc12` (stereo unspecified), 33.8 µM. As to `COc1ccc(O)c(/C=N/NC(=O)c2ccc(OCc3cccc(Br)c3)cc2)c1`, the EC50 was 5.72 µM. Take `Cc1cc(C(=O)O)oc(=O)c1`: the EC50 is > 35 µM (inactive).

As for `COc1ccc(CCNc2nncc(=O)[nH]2)cc1OC`, the EC50 was > 35 µM (inactive). Next, `COc1cccc2sc(Nc3nc(-c4ccccn4)cs3)nc12`: 6.13 µM; `O/N=C1/C2C3CC4C5C3C1C5C1(OCCO1)C42` (stereo unspecified): > 35 µM (inactive). In the case of `CC1CN(S(=O)(=O)c2cccc(C(=O)N(CCc3ccccc3)Cc3ccccc3)c2)CC(C)O1` (stereo unspecified) it was > 35 µM (inactive). In the case of `COc1ccccc1NC(c1cccnc1)c1ccc2cccnc2c1O` (stereo unspecified) it was 25.9 µM; in that of `O=C(Cn1c(Cc2ccccc2)nc2ccccc21)NCc1ccc2c(c1)OCO2`, > 35 µM (inactive); in that of `O=C(Nc1ncc2c(n1)CC(c1ccco1)CC2=O)c1ccccc1` (stereo unspecified), > 35 µM (inactive). As to `CCc1cnccc1CCC(=O)Nc1ccccc1C`, the EC50 was > 35 µM (inactive).

On to `c1ccc(OCc2nc(-c3ccncc3)no2)cc1`, for which the EC50 was > 35 µM (inactive). Next, `c1ccc(CSc2nnc(-c3ccco3)o2)cc1`: > 35 µM (inactive); `Oc1c(CN2CCc3ccccc3C2)cc(Cl)c2cccnc12`: 7.26 µM; `c1ccc(N=Nc2ccc3cccccc2-3)cc1`: 33.1 µM. `CCc1ccc(NC(=O)COC(=O)c2cccs2)cc1`: the EC50 is > 35 µM (inactive). In the case of `N#Cc1ccccc1OCCCN1CCC(Cc2ccccc2)CC1` it was > 35 µM (inactive); in that of `COc1ccc(O)c(/C=N/NC(=S)Nc2cccc(S(=O)(=O)N(C)C)c2)c1`, > 35 µM (inactive). In the case of `Cn1c(SCC(=O)Nc2ccccc2)nnc1-c1ccc(NC(=O)CCc2ccccc2)cc1` it was > 35 µM (inactive). Next, `CCOc1cc(/C=N/NC(=O)c2c(-c3ccccc3)noc2C)ccc1O`: > 35 µM (inactive); `CCOc1ccc(N2C(=O)CC(Sc3nc(C)cc(C)n3)C2=O)cc1` (stereo unspecified): > 35 µM (inactive). As for `CCOC(=O)c1sc(=S)n(-c2ccccc2)c1C`, the EC50 was > 35 µM (inactive). With `O=C(CSc1nc2ccccc2c(=O)[nH]1)Nc1ccc(Br)cc1`, the EC50 is > 35 µM (inactive).

Take `COc1ccc(NC(=O)C(=O)NNC(=O)c2ccc(Cl)cc2Cl)cc1`: the EC50 was > 35 µM (inactive). Next, `Cc1nc(-n2[nH]c3c(c2=O)CCCC3)[nH]c(=O)c1Cc1ccccc1`: 9.42 µM.
